Each structure is given as a SMILES string. Calls of active or inactive are those of the source. Bounds are passed on as bounds.

The target in one assay is Large T antigen (Simian virus 40, UniProt P03070). In kind it is functional, Betapolyomavirus macacae.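 Note: Confirmatory-stage PubChem screen for compounds that inhibit SV40 T antigen.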
Assay [1] deals with T1, Mannose-6-phosphate isomerase (Homo sapiens, UniProt P34949).
T1 sequence (P34949 whole entry): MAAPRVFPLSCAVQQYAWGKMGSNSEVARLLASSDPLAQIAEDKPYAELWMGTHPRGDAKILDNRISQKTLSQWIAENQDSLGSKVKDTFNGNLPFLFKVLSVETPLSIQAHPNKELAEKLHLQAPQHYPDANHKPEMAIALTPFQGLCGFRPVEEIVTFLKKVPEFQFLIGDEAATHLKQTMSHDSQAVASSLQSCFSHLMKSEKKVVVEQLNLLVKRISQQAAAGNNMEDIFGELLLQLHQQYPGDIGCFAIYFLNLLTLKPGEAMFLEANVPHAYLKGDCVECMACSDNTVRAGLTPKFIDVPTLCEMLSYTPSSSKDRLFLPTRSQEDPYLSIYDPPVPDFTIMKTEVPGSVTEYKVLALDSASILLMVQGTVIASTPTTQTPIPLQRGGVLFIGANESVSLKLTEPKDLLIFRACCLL
Put plainly: inhibitors of human PMI, primary screen, biochemical, fluorescence intensity, coupled assay (AID 1209).

Assay [2] is described as follows: THP-1 cell cytotoxicity, dose response, cytotoxicity control for Vif-APOBEC3G degradation inhibitor project, THP-1 cells (AID 1117359). The settings on record: Human immunodeficiency virus 1, THP-1. In kind it is functional.
Assay [3] concerns the target T2, Bcl-2-related protein A1 (Mus musculus, UniProt Q07440).
T2 sequence (Q07440 whole entry): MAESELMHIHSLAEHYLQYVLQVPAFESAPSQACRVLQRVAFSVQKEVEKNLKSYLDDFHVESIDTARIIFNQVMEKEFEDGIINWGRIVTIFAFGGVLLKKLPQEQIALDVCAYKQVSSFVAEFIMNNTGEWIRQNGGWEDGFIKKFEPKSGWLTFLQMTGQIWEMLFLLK
Put plainly: Bfl-1 inhibitors blocking BH3 peptide binding, confirmation, biochemical, TR-FRET, mouse Bfl-1 (AID 621).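 Note: TR-FRET binding of GST-Bfl-1 to FITC-labelled Bid peptide via terbium antibody.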

The target in assay [4] is T2, Bcl-2-related protein A1. Put plainly: Bfl-1 binding inhibitors, SAR follow-up, biochemical, fluorescence polarization (AID 1070). In general terms: Fluorescence polarisation rises when a labelled molecule tumbles more slowly, as on binding a larger partner.
Assay [5] in a line: A549 cell cytotoxicity, dose response, cytotoxicity control, plate reader, cherry-pick, antagonist series (AID 743412). The format is functional, cell-based.
Assay [6] in a line: HepG2 cell cytotoxicity, dose response, cytotoxicity control, plate reader, cherry-pick, antagonist series (AID 743416). The format is functional, cell-based.
Assay [7] can be described thus: LGR2 antagonists, dose response, cell-based, HEK293, CRE-luciferase reporter, cherry pick, set 2 (AID 743343).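 Note: transfected cells were stimulated with diluted bursicon conditioned medium after compound addition.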 The format is functional. Background: A reporter such as luciferase makes a cellular process visible.
Assay [8] can be described thus: MC4R antagonists, dose response, counter-screen for LGR2 antagonist project, cell-based, plate reader, cherry pick (AID 743444).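 Note: transfected HEK 293 cells stimulated with alpha-MSH peptide; potency of inhibitors of the alpha-MSH evoked signal.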 The format is functional. Background: A counterscreen serves to expose hits that act by an unwanted route or on another target.
Assay [9] is described as follows: A High Throughput Confirmatory Assay used to Identify Novel Compounds that Inhibit Mycobacterium Tuberculosis in the absence of Glycerol. In kind it is functional.
Assay [10] in a line: Luminescence-based dose response cell-based high throughput screening assay for cytotoxic compounds using the IEC-6 intestinal epithelial cell line. [Related pubchem assays: 1858 (Summary AID.), 1825 (Counterscreen.), 1907 (Confirmation screen.)]. In kind it is functional.
The nature of assay [11]: Luminescence Cell-Based Dose Retest to Confirm Inhibitors of Cancer Stem Cells. [Related pubchem assays (depositor defined):AID2717, AID2721]. In kind it is functional. The conditions noted are these: Homo sapiens.
Assay [12] can be described thus: cytotoxicity in HEK-293T cells, dose response, cytotoxicity control for TCR NF-kB inhibitor project, luminescence, T-cell screen hits (AID 489026).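 Note: cells exposed to compound about 14 hours before the viability readout.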 The format is functional, cell-based.
Assay [13] deals with T3, Sphingosine 1-phosphate receptor 2 (Homo sapiens, UniProt O95136). Put plainly: Dose Response Cell Based Assay for Agonists of the S1P2 Receptor of Purchased Analogues. [Related pubchem assays: 729, 843, 854, 736 ]. The format is functional.
T3 sequence (O95136 whole entry): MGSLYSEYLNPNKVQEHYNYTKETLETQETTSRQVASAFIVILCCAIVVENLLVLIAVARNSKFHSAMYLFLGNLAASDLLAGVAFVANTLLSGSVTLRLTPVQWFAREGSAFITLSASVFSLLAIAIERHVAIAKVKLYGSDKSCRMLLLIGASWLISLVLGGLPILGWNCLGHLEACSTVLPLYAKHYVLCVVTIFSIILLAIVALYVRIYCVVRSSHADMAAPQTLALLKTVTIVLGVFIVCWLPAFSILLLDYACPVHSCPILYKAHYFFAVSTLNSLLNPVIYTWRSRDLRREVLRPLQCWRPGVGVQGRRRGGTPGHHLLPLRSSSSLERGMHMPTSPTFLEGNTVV
Assay [14] concerns Vero. Nature of the assay: host cell cytotoxicity of antiviral hits, dose response, cytotoxicity control for West Nile virus antiviral project, secondary assay (AID 1650). In kind it is functional. The conditions noted are these: Chlorocebus sabaeus.
Assay [15] can be described thus: inhibitors of intracellular T. cruzi replication, confirmation, NIH3T3 host cells, beta-gal luminescence (AID 2044).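 Note: intracellular parasites grown in NIH/3T3 mouse fibroblasts as host cells; luminescent beta-galactosidase reporter signal from transgenic T. cruzi replicating inside host cells; inhibitors lower the luminescence signal.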 In kind it is functional, cell-based.
Assay [16] is described as follows: cytotoxicity toward NIH3T3 fibroblasts, dose response, counter-screen, cell-based, ATP luminescence, mouse fibroblasts (AID 2010).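 Note: cells exposed to compound for about 90 hours before reading.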 In kind it is functional.
For assay [17], the system named is Vero. Put plainly: cells. The settings on record: Chlorocebus sabaeus. The format is functional.
In a further assay the target is Cytochrome P450 2C19 (Homo sapiens, UniProt P33261). Nature of the assay: qHTS Assay for Inhibitors and Substrates of Cytochrome P450 2C19. [Related pubchem assays: 410 ]. In kind it is ADME. The conditions noted are these: read-out: Potency.
A further assay has as its target Cytochrome P450 2C9 (Homo sapiens, UniProt P11712). The conditions noted are these: Potency.
Assay [18] deals with Peroxisome proliferator-activated receptor gamma/Nuclear receptor corepressor 2 (Homo sapiens, UniProt P37231+Q9Y618). Nature of the assay: Counterscreen for NR2E3 inverse agonists: TR-FRET-based biochemical high throughput dose response assay to identify inverse agonists of the interaction between peroxisome proliferator-activated receptor gamma (PPARg) and nuclear receptor co-repressor 2 (NCOR2). In kind it is functional.
Peroxisome proliferator-activated receptor gamma/Nuclear receptor corepressor 2, sequence (P37231 whole entry): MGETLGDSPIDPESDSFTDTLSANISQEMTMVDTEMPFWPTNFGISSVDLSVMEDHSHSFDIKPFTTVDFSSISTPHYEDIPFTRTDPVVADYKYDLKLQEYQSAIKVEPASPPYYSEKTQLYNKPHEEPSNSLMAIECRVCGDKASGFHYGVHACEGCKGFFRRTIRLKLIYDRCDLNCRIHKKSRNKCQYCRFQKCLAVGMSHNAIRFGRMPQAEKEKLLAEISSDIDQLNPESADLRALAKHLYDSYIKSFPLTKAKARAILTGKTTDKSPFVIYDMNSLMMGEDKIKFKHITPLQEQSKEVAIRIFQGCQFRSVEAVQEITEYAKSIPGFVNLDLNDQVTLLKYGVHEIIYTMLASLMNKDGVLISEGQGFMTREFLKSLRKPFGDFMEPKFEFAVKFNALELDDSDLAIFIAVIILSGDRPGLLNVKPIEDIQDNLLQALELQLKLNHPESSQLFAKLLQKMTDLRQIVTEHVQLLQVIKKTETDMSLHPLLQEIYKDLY
Peroxisome proliferator-activated receptor gamma/Nuclear receptor corepressor 2, sequence (Q9Y618 whole entry): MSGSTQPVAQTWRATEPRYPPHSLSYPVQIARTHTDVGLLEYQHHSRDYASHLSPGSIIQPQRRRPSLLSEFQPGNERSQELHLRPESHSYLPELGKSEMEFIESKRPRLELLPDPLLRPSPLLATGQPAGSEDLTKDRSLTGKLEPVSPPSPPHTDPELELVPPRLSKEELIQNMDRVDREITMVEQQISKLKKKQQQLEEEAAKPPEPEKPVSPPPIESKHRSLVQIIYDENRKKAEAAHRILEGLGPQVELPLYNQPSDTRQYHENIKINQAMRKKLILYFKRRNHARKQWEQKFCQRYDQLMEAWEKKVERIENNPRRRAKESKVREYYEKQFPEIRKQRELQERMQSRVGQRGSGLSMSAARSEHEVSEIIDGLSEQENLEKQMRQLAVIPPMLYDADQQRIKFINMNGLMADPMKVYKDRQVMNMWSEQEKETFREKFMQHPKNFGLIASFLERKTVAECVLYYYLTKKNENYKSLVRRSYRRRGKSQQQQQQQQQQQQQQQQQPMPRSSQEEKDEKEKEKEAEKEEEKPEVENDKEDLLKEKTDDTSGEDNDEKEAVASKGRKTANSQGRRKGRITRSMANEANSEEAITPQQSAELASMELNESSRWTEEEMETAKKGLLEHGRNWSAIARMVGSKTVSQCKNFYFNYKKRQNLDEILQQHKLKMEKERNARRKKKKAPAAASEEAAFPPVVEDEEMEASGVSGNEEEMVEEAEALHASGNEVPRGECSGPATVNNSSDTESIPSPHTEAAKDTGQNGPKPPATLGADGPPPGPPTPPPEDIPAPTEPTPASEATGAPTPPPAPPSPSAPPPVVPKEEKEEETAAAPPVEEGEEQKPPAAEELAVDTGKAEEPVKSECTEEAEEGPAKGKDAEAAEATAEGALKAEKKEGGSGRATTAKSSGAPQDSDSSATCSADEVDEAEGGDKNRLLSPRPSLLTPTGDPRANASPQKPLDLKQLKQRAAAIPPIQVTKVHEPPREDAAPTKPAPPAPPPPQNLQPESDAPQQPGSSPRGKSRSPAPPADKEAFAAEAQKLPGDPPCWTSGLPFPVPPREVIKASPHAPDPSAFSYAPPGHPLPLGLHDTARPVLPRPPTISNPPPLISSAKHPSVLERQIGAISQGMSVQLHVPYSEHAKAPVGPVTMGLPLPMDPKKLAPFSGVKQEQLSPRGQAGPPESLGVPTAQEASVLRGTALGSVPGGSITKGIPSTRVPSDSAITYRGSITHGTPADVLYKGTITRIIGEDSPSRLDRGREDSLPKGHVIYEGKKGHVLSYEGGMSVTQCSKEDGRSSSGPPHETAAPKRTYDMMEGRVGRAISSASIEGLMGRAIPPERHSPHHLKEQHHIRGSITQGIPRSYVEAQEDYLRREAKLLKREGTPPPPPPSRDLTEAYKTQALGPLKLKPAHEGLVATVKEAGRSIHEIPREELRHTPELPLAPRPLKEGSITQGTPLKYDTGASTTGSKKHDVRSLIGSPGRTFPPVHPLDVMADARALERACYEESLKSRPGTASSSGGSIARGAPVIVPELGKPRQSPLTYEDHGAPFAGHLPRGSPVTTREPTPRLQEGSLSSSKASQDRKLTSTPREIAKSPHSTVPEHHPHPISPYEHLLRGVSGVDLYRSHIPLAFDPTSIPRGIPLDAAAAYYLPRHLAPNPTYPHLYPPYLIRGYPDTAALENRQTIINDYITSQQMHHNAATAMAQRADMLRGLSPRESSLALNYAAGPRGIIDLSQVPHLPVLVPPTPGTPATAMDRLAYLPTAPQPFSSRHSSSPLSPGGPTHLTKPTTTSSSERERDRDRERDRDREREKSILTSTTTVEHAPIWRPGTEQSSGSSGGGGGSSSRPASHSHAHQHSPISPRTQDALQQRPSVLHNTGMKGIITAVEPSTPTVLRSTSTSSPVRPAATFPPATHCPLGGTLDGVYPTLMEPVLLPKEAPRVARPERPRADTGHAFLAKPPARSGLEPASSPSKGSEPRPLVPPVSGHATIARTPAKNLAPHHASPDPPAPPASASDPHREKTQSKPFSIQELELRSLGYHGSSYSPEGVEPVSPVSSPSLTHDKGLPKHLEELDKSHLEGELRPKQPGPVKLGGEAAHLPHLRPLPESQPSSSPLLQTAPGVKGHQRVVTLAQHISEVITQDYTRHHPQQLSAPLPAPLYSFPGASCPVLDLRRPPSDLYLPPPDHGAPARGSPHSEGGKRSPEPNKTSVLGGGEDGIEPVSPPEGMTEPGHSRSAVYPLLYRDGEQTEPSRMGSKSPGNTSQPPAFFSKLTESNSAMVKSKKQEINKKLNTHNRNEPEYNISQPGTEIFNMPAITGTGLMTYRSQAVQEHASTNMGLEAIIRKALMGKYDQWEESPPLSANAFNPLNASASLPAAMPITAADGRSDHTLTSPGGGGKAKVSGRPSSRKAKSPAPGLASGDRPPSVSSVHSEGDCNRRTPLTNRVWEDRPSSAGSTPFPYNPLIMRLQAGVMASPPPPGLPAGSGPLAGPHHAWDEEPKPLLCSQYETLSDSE

The target in assay [19] is Photoreceptor-specific nuclear receptor (Homo sapiens, UniProt Q9Y5X4). Nature of the assay: NR2E3 inverse agonists, dose response, biochemical, TR-FRET (AID 463256). In kind it is functional.
The nature of assay [20]: inhibitors of Bluetongue virus cytopathic effect, confirmation, arbovirus, BSR cells (AID 1250).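 Note: protection from viral cytopathic effect measured as cell viability by ATP luminescence.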 In kind it is functional.
Assay [21] deals with T3, Sphingosine 1-phosphate receptor 2. Nature of the assay: Dose Response Cell-Based Assay for Agonists of the Sphingosine 1-Phosphate Receptor 2 (S1P2): Purchased Analogues. [Related pubchem assays: 1192, 373, 439 ]. In kind it is functional.
Assay [22] deals with Sphingosine 1-phosphate receptor 1 (Homo sapiens, UniProt P21453). Nature of the assay: Dose Response Cell-Based Assay for Agonists of the Sphingosine 1-Phosphate Receptor 1 (S1P1): Purchased Analogues. [Related pubchem assays: 1192, 373, 439 ]. The format is functional.
Sphingosine 1-phosphate receptor 1, sequence (P21453 whole entry): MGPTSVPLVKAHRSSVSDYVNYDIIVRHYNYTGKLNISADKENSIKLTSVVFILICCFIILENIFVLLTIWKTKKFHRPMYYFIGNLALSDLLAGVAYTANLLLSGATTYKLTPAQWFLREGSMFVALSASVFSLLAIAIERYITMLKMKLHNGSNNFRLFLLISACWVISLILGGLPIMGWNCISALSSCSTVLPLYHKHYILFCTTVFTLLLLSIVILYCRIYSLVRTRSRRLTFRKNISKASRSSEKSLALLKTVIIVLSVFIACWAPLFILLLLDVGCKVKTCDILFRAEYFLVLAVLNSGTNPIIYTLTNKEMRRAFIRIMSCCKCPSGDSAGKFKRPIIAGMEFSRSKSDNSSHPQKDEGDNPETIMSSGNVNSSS
In assay [23] the target is T4, Sphingosine 1-phosphate receptor 3 (Homo sapiens, UniProt Q99500). Nature of the assay: Dose Response Cell-Based Assay for Agonists of the Sphingosine 1-Phosphate Receptor 3 (S1P3): Purchased Analogues. [Related pubchem assays: 373, 439 ]. In kind it is functional.
T4 sequence (Q99500 whole entry): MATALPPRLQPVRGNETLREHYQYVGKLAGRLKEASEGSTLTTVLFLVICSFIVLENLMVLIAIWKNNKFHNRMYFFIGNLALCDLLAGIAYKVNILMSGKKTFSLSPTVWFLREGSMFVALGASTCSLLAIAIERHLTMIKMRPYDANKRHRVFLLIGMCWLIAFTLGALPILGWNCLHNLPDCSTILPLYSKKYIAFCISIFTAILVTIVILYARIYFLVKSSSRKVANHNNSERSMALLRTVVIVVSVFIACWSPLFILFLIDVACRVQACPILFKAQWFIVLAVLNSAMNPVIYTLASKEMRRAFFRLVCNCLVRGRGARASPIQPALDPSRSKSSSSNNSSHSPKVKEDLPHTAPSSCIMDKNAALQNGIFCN
The target in assay [24] is Neuropeptide Y receptor type 1 (Homo sapiens, UniProt P25929). The format is functional.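 Note: HEK293 cells with a CNG channel challenged with NPY then isoproterenol; potency as antagonist that reverses NPY suppression of cAMP signal.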
In assay [25] the target is Neuropeptide Y receptor type 2 (Homo sapiens, UniProt P49146). In kind it is functional, cell-based.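 Note: HEK293 cells expressing the receptor and a CNG channel; stimulus was NPY near EC95 followed by isoproterenol to raise cAMP; antagonist potency measured as restoring cAMP signal that NPY suppresses.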
Neuropeptide Y receptor type 2, sequence (P49146 whole entry): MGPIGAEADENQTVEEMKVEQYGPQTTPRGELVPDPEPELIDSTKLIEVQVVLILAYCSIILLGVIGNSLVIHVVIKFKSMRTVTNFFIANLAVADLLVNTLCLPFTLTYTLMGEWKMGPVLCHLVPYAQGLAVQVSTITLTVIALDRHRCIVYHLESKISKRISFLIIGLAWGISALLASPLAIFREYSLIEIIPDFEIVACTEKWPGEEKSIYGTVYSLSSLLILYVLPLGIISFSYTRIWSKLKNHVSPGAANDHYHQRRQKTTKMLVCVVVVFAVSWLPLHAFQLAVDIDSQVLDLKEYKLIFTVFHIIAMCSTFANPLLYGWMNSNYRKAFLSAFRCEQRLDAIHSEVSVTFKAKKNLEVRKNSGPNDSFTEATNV
Assay [26] concerns the target 5-hydroxytryptamine receptor 1E (Homo sapiens, UniProt P28566). Put plainly: Counterscreen assay for S1P3 antagonists: Dose response cell-based high throughput screening assay to identify antagonists of the 5-Hydroxytryptamine Receptor Subtype 1E (5HT1E). [Related pubchem assays: 1429, 485 ]. The format is functional.
The target in assay [27] is T4, Sphingosine 1-phosphate receptor 3. Nature of the assay: Dose response cell-based high throughput screening assay for antagonists of the Sphingosine 1-Phosphate Receptor 3 (S1P3). [Related pubchem assays: 1429, 485 ]. The format is functional.
Assay [28] has as its target Glucose-6-phosphate 1-dehydrogenase (Homo sapiens, UniProt P11413). Nature of the assay: human G6PD enzyme inhibitors, dose response, selectivity assay for P. falciparum G6PD inhibitor project, biochemical, fluorescence (AID 504792). The format is functional.
Assay [29] addresses T5, Probable nicotinate-nucleotide adenylyltransferase (Staphylococcus aureus (strain N315), UniProt P65502). The format is functional, Staphylococcus aureus subsp. aureus N315.
Assay [30] deals with T5, Probable nicotinate-nucleotide adenylyltransferase. The format is functional, Staphylococcus aureus subsp. aureus N315. The conditions noted are these: read-out: IC50_Mean.
Another assay addresses Paired box protein Pax-8 (Homo sapiens, UniProt Q06710). Nature of the assay: inhibitors of PAX8-driven TPO luciferase reporter, dose response, RMG-I cells, cherry-pick (AID 687027).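 Note: luciferase reporter driven by Pax8 target thyroperoxidase promoter measured by SteadyGlo luminescence.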 In kind it is functional, cell-based.
Assay [31] deals with Epstein-Barr nuclear antigen 1 (Epstein-Barr virus (strain B95-8) (HHV-4) (Human herpesvirus 4), UniProt P03211). Nature of the assay: EBNA-1 inhibitors, dose response, biochemical, fluorescence polarization, 1536-well (AID 2381).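 Note: fluorescence polarization of a Cy5 DNA probe bound by EBNA-1 protein.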 More on the design: species or system human gammaherpesvirus 4.
In assay [32] the target is Lytic switch protein BZLF1 (Epstein-Barr virus (strain B95-8) (HHV-4) (Human herpesvirus 4), UniProt P03206). Nature of the assay: EBV ZTA inhibitors, dose response, counter-screen for EBNA-1 inhibitor project, biochemical, fluorescence polarization, Epstein-Barr virus, 1536-well (AID 2377).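 Note: fluorescence polarization of Cy5-labelled ZRE DNA probe bound by purified Zta.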 Also noted: species or system human gammaherpesvirus 4.
Lytic switch protein BZLF1, sequence (P03206 whole entry): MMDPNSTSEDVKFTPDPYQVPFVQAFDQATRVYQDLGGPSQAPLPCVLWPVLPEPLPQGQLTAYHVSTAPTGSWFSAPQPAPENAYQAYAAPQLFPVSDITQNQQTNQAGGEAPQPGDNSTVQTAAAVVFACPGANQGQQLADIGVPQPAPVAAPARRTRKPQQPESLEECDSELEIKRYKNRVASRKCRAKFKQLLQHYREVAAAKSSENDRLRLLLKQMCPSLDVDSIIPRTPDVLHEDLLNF
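Throughout, for IC50 Mean: confirmatory dose-response retesting of NadD inhibitor hits first found in an ultra-high-throughput screen.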

T5 sequence (P65502 whole entry): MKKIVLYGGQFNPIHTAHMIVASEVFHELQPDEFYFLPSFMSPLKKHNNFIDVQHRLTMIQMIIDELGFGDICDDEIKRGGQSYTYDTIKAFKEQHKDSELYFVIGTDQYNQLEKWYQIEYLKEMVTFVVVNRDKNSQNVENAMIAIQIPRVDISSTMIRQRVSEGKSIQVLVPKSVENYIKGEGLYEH

The term CC50 denotes the concentration that lowers cell viability or growth by half. Take `COc1cccc(-n2c(/C=C/c3ccc(O)c(O)c3)nc3ccccc3c2=O)c1`: the IC50 on Large T antigen was > 100 µM (active); in assay [1], > 50 µM (not active). Besides, the CC50 in assay [2] was 23.1 µM (active).
As to `Fc1ccc(-n2nnc(-c3cnc4ccccc4c3)n2)cc1`, the IC50 on Bcl-2-related protein A1 [3] and on Bcl-2-related protein A1 [4] was > 100 µM (not active) each time. Further, the AC50 was 39.5 µM (active) in [5], > 52 µM (inactive) in [6], 1.23 µM (active) in assay [7] and 2.15 µM (active) in assay [8].
Turning to `COc1cc2cc(C(c3nnnn3C(C)(C)C)N3CCc4ccccc43)c(O)nc2cc1OC` (stereo not drawn), in assay [9], the IC50 is > 100 µM (active).
In the case of `COC(=O)C(Cc1ccc(N(CCCl)CCCl)cc1)/N=C/c1ccccc1O` (stereo not drawn), the IC50 is 0.103 µM (active) in assay [10] and > 80 µM (inactive) in assay [12]. Besides, the AC50 in assay [11] is 0.899 µM (active).
The EC50 is the concentration needed to bring the measured effect to its halfway point. Take `Cc1cc(C(=O)CN(C)CC(=O)NC2CC2)c(C)n1Cc1ccccc1`: the EC50 in assay [13] is > 30 µM (not active).
Consider `C=C(C)[C@@]12OC3(c4ccccc4)O[C@@H]1C1[C@@H]4O[C@]4(CO)[C@@H](O)[C@]4(O)C(=O)C(C)=C[C@H]4[C@@]1(O3)[C@H](C)[C@H]2OC(=O)/C=C/C=C/c1ccccc1` (stereo partly drawn), for which the CC50 is > 100 µM (active) with Vero [14] and > 25 µM (active) with Vero [17]. The half-maximal effective concentration (EC50) in assay [15] was < 0.1 µM (active); in assay [16], > 60 µM (not active); in “cells” it was < 0.004 µM (active). Also, in assay [12], the IC50 is > 80 µM (inactive).
In the case of `COc1cc2ccc(=O)oc2c(O)c1O` [FRAXETIN], the AC50 on Cytochrome P450 2C19 was 39.8 µM (inconclusive); at Cytochrome P450 2C9 it was 25.1 µM (inconclusive).
As to `CC(C)(C)NC(=O)CN(Cc1ccco1)C(=O)CCC(=O)Nc1nccs1`, the values for the IC50 in [18] and in assay [19] were 32.7 µM (not active) and > 39.8 µM (not active), respectively.
Regarding `Cc1nc2c(C(=O)NCCc3ccccc3Cl)cnn2c(O)c1Cl`, in assay [20], the IC50 is 23.9 µM (active).
On to `COc1ccc(-c2n[nH]c(SCC(=O)N(C3CCCCC3)C3CCCCC3)n2)cc1`, for which the EC50 is > 10 µM (not active) in [21], > 50 µM (not active) in [22] and > 50 µM (not active) in assay [23].
For the molecule `CCCCOc1ccc(C2=NNC(=O)CC2)cc1`, the IC50 is 13.6 µM (not active) in [24] and 4.54 µM (active) in assay [25].
With `Cc1cccc(C2(c3cccc(C)c3)CC2C(=O)Nc2ccc([N+](=O)[O-])cc2O)c1` (stereo not drawn), the IC50 in assay [26] is 5.46 µM (active); in [27], > 50 µM (not active); in [28] it was > 80 µM (inactive); in assay [29], 17 µM (active); in [30] it was 45.4 µM (active). For the same molecule, at Paired box protein Pax-8, the AC50 was 7.83 µM (active).
As to `COc1ccc(NC(=O)COc2ccc3c(C)cc(=O)oc3c2)cc1S(=O)(=O)N1CCCCC1`, the IC50 was 5.29 µM (active) in assay [31] and > 111 µM (not active) in [32].

The values are drawn from ChEMBL document CHEMBL1201862, “PubChem BioAssay data set” (2004).
